Assay [1] concerns the target T1, human recombinant histamine H2 receptor (Homo sapiens, UniProt P25021).
T1 construct: expressed in transfected cells; host or cells: CHO-K1 cells
Briefly: Histamine H2 radioligand binding ([125I]Aminopotentidine). The following applies: compound at 1 μM; read-out: Histamine Binding (1 μM) H2, percent inhibition of specific binding. An outline of the steps:
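Membranes from CHO-K1 cells expressing recombinant human H2 receptor, in 50 mM phosphate buffer pH 7.4, incubated with 0.1 nM [125I]aminopotentidine for 120 min at 25 °C; nonspecific binding defined with 3 μM tiotidine.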

Assay [2] concerns the target T2, human recombinant adrenergic α1D receptor (Homo sapiens, UniProt P25100).
T2 construct: expressed in transfected cells; host or cells: HEK-293 cells
T2 sequence (P25100 1-572): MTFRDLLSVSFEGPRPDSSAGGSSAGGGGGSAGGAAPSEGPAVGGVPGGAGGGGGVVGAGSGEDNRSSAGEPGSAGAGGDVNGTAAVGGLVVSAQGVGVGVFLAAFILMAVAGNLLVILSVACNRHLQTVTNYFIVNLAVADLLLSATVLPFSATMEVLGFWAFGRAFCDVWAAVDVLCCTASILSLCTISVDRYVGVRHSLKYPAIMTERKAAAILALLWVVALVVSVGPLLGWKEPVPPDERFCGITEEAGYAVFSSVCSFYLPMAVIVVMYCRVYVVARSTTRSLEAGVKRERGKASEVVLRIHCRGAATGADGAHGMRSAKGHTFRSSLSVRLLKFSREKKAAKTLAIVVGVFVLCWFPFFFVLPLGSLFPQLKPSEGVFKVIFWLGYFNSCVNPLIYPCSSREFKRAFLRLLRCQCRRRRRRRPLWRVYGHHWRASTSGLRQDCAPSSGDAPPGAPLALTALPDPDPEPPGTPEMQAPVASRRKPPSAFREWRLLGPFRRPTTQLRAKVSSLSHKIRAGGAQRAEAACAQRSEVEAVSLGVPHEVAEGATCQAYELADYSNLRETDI
Briefly: Adrenergic alpha1D radioligand binding ([3H]Prozosin). The following applies: compound at 1 μM; read-out: Adrenergic (1 μM) α1D, percent inhibition of specific binding. Here is the method: To evaluate in radioligand binding assays the activity of compounds of the invention, human recombinant adrenergic α1D receptor expressed in human embryonic kidney (HEK-293) cells (Kenny, B. A. et al. Br. J. Pharmacol. 115(6):981, 1995) in a 50 mM Tris-HCl buffer, pH 7.4, was used. Compounds of invention were incubated with 0.6 nM [^3H]Prozosin for 60 min. at 25° C. Non-specific binding was estimated in the presence of 10 μM phentolamine. Receptor proteins were filtered and washed, the filters were then counted to determine [^3H]Prozosin specifically bound. Compounds were screened at 1 μM or lower, using 1% DMSO as vehicle. Biochemical assay results are presented as the percent inhibition of specific binding in Table 5.

Assay [3] addresses T3, human recombinant serotonin (5-Hydroxytryptamine) 5-HT6 receptor (Homo sapiens, UniProt P50406).
T3 construct: expressed in transfected cells; host or cells: human HeLa cells
Briefly: Serotonin 5-HT6 radioligand binding ([3H]LSD). The following applies: compound at 1 μM; read-out: Serotonin (1 μM) 5-HT6, percent inhibition of specific binding. The essentials:
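Human recombinant 5-HT6 receptor from HeLa cells incubated with 1.5 nM [3H]LSD for 120 min at 37° C in 50 mM Tris-HCl pH 7.4, 150 mM NaCl, 2 mM ascorbic acid, 0.001% BSA. Nonspecific binding defined with 5 μM serotonin; bound ligand counted after filtration.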

For assay [4], the target named is T4, human recombinant histamine H1 receptor (Homo sapiens, UniProt P35367).
T4 construct: expressed in transfected cells; host or cells: CHO cells
Briefly: Histamine H1 radioligand binding ([3H]Pyrilamine). The conditions noted are these: compound at 1 μM; read-out: Histamine Binding (1 μM) H1, percent inhibition of specific binding. The essentials: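 Membranes from CHO cells expressing the receptor were incubated with compound and 1.2 nM [3H]pyrilamine for 180 min at 25 °C in 50 mM Tris-HCl pH 7.4 with MgCl2, NaCl and sucrose; 1 μM pyrilamine defined non-specific binding. Filter-bound radioactivity was counted.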

Structures are written as SMILES.

T1 sequence (P25021 whole entry): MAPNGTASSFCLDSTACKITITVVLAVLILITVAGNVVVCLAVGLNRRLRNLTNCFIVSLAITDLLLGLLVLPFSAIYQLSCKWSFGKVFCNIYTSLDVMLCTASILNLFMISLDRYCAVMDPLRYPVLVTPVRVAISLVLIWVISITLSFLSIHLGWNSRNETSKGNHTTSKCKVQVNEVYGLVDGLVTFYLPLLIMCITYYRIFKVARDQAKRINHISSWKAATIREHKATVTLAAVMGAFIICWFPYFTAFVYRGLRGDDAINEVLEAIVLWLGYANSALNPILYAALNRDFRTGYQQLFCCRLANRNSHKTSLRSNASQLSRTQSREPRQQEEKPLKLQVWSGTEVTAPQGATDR
T3 sequence (P50406 whole entry): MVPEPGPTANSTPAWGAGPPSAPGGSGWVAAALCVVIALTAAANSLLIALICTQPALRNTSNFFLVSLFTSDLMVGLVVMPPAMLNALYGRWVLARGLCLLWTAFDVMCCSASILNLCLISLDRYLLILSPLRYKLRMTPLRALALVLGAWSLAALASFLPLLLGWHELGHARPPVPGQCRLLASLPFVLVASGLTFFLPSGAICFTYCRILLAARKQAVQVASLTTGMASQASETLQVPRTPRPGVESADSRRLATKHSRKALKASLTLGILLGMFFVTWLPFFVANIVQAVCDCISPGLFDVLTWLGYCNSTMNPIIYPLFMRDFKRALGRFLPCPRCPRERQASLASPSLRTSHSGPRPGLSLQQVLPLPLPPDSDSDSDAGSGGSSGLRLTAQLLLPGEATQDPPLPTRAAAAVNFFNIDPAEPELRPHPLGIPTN
T4 sequence (P35367 whole entry): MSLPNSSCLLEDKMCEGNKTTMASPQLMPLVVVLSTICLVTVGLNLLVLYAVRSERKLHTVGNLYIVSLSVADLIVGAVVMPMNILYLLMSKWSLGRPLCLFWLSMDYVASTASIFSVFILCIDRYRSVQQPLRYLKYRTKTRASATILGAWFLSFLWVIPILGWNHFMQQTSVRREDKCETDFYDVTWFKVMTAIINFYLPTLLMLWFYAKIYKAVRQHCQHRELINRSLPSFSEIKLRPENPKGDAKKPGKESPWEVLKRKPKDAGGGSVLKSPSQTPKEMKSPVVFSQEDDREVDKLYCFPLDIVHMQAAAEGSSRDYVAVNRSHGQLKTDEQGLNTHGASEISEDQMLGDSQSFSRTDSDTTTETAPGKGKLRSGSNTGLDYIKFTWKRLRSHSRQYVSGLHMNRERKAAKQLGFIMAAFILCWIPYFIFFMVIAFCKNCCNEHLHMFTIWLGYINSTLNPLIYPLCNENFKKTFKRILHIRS

Take `CN1CCc2c(n(CC(O)c3cccnc3)c3ccc(Cl)cc23)CC1` (stereo not shown) [Compound No. 18, 2-(9-chloro-2,3,4,5-tetrahydro-3-methylazepino[4,5-b]indol-6(1H)-yl)-1-(pyridin-3-yl)ethanol]: the inhibition – broadly, the drop in the measured response relative to a control, in per cent – at 1 µM in assay [1] amounted to 51%; in assay [2], 58%; in assay [3], 60%; in assay [4], 98%.
For `Cc1ccc2c(c1)c1c(n2CCc2ccc(Cl)cc2)CCN(C)CC1` [Compound No. 28, 6-(4-chlorophenethyl)-1,2,3,4,5,6-hexahydro-3,9-dimethylazepino[4,5-b]indole], in that order: 97%, 94%, 95% and 103%.
Taken in the same sequence, the figures for `CN1CCc2c(n(CCc3ccccc3)c3ccc(Cl)cc23)CC1` [Compound No. 56, 9-chloro-1,2,3,4,5,6-hexahydro-3-methyl-6-phenethylazepino[4,5-b]indole] were 74%, 83%, 104% and 105%.
For the molecule `Cc1ccc2c(c1)c1c(n2CC(O)c2cccnc2)CCN(C)CC1` (stereo not shown) [Compound No. 19, 2-(2,3,4,5-tetrahydro-3,9-dimethylazepino[4,5-b]indol-6(1H)-yl)-1-(pyridin-3-yl)ethanol], the inhibition at 1 µM in assay [1] is 42%; in assay [2], 54%; in assay [3], 42%; in assay [4], 99%.
With `Cc1ccc2c(c1)c1c(n2CCc2ccccc2F)CCN(C)CC1` [Compound No. 63, 6-(2-fluorophenethyl)-1,2,3,4,5,6-hexahydro-3,9-dimethylazepino[4,5-b]indole], the inhibition at 1 µM in assay [1] turned out to be 83%; in assay [2] it was 77%; in assay [3], 101%; in assay [4], 99%.
Taken in the same sequence, the figures for `COc1ccc(C(O)Cn2c3c(c4cc(C)ccc42)CCN(C)CC3)cc1F` (stereo not shown) [Compound No. 68, 1-(3-fluoro-4-methoxyphenyl)-2-(2,3,4,5-tetrahydro-3,9-dimethylazepino[4,5-b]indol-6(1H)-yl)ethanol] were 69%, 93%, 87% and 102%.
In the case of `Cc1ccc2c(c1)c1c(n2C(=O)Cc2ccc(F)cc2)CCN(C)CC1` [Compound No. 285, 1-(3,9-dimethyl-2,3,4,5-tetrahydroazepino[4,5-b]indol-6(1H)-yl)-2-(4-fluorophenyl) ethanone], the inhibition at 1 µM in assay [1] is 74%; in assay [2] it was 89%; in assay [3] it was 94%; in assay [4], 68%.
Taken in the same sequence, the figures for `CN1CCc2c(n(CC(O)c3ccc(Cl)cc3)c3ccc(Cl)cc23)CC1` (stereo not shown) [Compound No. 16, 2-(9-chloro-2,3,4,5-tetrahydro-3-methylazepino[4,5-b]indol-6(1H)-yl)-1-(4-chlorophenyl)ethanol] were 92%, 85%, 78% and 103%.
For `Cc1ccc2c(c1)c1c(n2CC(C)(O)c2ccc(F)cc2)CCN(C)CC1` (stereo not shown) [Compound No. 14, 2-(4-fluorophenyl)-1-(2,3,4,5-tetrahydro-3,9-dimethylazepino[4,5-b]indol-6(1H)-yl)propan-2-ol], in that order: 83%, 75%, 93% and 98%.
For the molecule `CN1CCc2c(n(CC(=O)N3CCCCC3)c3ccc(Cl)cc23)CC1` [Compound No. 57, 2-(9-chloro-2,3,4,5-tetrahydro-3-methylazepino[4,5-b]indol-6(1H)-yl)-1-(piperidin-1-yl)ethanone], the inhibition at 1 µM was 1% in assay [1], -7% in assay [2], -1% in assay [3] and 8% in assay [4].
Take `Cc1ccc2c(c1)c1c(n2CC(O)c2ccc(F)cc2)CCN(C)CC1` (stereo not shown) [Compound No. 52, 1-(4-fluorophenyl)-2-(2,3,4,5-tetrahydro-3,9-dimethylazepino[4,5-b]indol-6(1H)-yl)ethanol]: the inhibition at 1 µM in assay [1] turned out to be 61%; in assay [2], 91%; in assay [3], 84%; in assay [4], 96%.
For `Cc1ccc2c(c1)c1c(n2/C=C/c2ccccc2F)CCN(C)CC1` [Compound No. 233, (E)-6-(2-fluorostyryl)-3,9-dimethyl-1,2,3,4,5,6-hexahydroazepino[4,5-b]indole], in that order: 94%, 96%, 103% and 98%.
In the case of `COc1ccc(C(O)Cn2c3c(c4cc(Cl)ccc42)CCN(C)CC3)c(F)c1` (stereo not shown) [Compound No. 49, 2-(9-chloro-2,3,4,5-tetrahydro-3-methylazepino[4,5-b]indol-6(1H)-yl)-1-(2-fluoro-4-methoxyphenyl) ethanol], the inhibition at 1 µM is 65% in assay [1], 71% in assay [2], 88% in assay [3] and 94% in assay [4].
Taken in the same sequence, the figures for `Cc1ccc2c(c1)c1c(n2CC(O)c2ccccc2F)CCN(C)CC1` (stereo not shown) [Compound No. 41, 1-(2-fluorophenyl)-2-(2,3,4,5-tetrahydro-3,9-dimethylazepino[4,5-b]indol-6(1H)-yl)ethanol] were 52%, 75%, 101% and 100%.
Taken in the same sequence, the figures for `Cc1ccc2c(c1)c1c(n2/C=C/c2ccc(F)cc2)CCN(C)CC1` [Compound No. 39, 6-(4-fluorostyryl)-1,2,3,4,5,6-hexahydro-3,9-dimethylazepino[4,5-b]indole] were 91%, 99%, 103% and 98%.
For `CN1CCc2c(n(/C=C/c3ccc(F)cc3)c3ccc(Cl)cc23)CC1` [Compound No. 234, (E)-9-chloro-6-(4-fluorostyryl)-3-methyl-1,2,3,4,5,6-hexahydroazepino[4,5-b]indole], in that order: 92%, 97%, 103% and 99%.
Turning to `Cc1ccc2c(c1)c1c(n2CC(=O)N(C)C2CCCCC2)CCN(C)CC1` [Compound No. 232, N-cyclohexyl-2-(3,9-dimethyl-2,3,4,5-tetrahydroazepino[4,5-b]indol-6(1H)-yl)-N-methylacetamide], the inhibition at 1 µM worked out at 22% in assay [1], 29% in assay [2], 20% in assay [3] and 95% in assay [4].
Taken in the same sequence, the figures for `Cc1ccc(C(O)Cn2c3c(c4cc(Cl)ccc42)CCN(C)CC3)cn1` (stereo not shown) [Compound No. 7, 2-(9-chloro-2,3,4,5-tetrahydro-3-methylazepino[4,5-b]indol-6(1H)-yl)-1-(6-methylpyridin-3-yl)ethanol] were 52%, 69%, 36% and 101%.
Taken in the same sequence, the figures for `Cc1ccc2c(c1)c1c(n2CC(O)c2ccc(C)nc2)CCN(C)CC1` (stereo not shown) [Compound No. 23, 2-(2,3,4,5-tetrahydro-3,9-dimethylazepino[4,5-b]indol-6(1H)-yl)-1-(6-methylpyridin-3-yl)ethanol] were -3%, 17%, 17% and 58%.
